Molecules are shown by their SMILES.

In the test the test system is WT Mtb Erdman strain. Nature of the test: Microplate Alamar Blue Assay (MABA), Mtb growth inhibition. In kind it is cell-based, Mycobacterium tuberculosis. Conditions: Mycobacterium tuberculosis, ERDMAN, 168 h, Middlebrook 7H9 media, 7 days at 37° C. in 5% CO2. Background: Alamar Blue is a resazurin reagent that responds to reducing activity.
As to `CCc1nc(N[C@@H]2C[C@H]2c2ccccc2)c2cc(C)sc2n1` (racemic) [Example 1, 2-ethyl-6-methyl-N-((rac-1S,2R)-2-phenylcyclopropyl) thieno[2,3-d]pyrimidin-4-amine], the IC50 (commonly the concentration that inhibits the measured activity by half) turned out to be 240 nM. `CCc1nc(NC[C@@H]2C[C@H]2c2ccccc2)c2cc(C)sc2n1` (racemic) [Example 84, 2-ethyl-6-methyl-N-(((1S,2S)-2-phenylcyclopropyl)methyl)thieno[2,3-d]pyrimidin-4-amine] gave an IC50 of 7700 nM. As for `CCc1nc(N[C@@H]2C[C@H]2c2ccccc2)c2ccsc2n1` (racemic) [Example 175, 2-ethyl-N-((rac-1R,2S)-2-phenylcyclopropyl) thieno[2,3-d]pyrimidin-4-amine], the figure is below 240 nM. In turn, `CCc1nc(N[C@H]2C[C@@H]2c2ccccc2)c2cc(C)sc2n1` [Example 2, 2-ethyl-6-methyl-N-((1S,2R)-2-phenylcyclopropyl) thieno[2,3-d]pyrimidin-4-amine] gave a half-maximal inhibitory concentration (IC50) of 3100 nM. As for `CCc1nc(NCCCc2ccc(C(F)(F)F)cc2)c2cc(C)sc2n1` [Example 3, 2-ethyl-6-methyl-N-(3-(4-(trifluoromethyl)phenyl)propyl)thieno [2,3-d]pyrimidin-4-amine], the figure is 280 nM. Turning to `CCc1nc(N[C@@H]2C[C@H]2c2ccc(F)c(F)c2)c2cc(C)sc2n1` [Example 4, N-((1R,2S)-2-(3,4-difluorophenyl)cyclopropyl)-2-ethyl-6-methylthieno[2,3-d]pyrimidin-4-amine], the IC50 was found to be 300 nM. As for `CCc1nc(NC2CC(c3ccccc3)C2)c2cc(C)sc2n1` (stereo not drawn) [Example 5, 2-ethyl-6-methyl-N-(3-phenylcyclobutyl) thieno[2,3-d]pyrimidin-4-amine], the figure is 2100 nM. As for `CCc1nc(N[C@@H]2C[C@H]2c2ccccc2)c2cc(C)sc2n1` [Example 6, 2-ethyl-6-methyl-N-((1R,2S)-2-phenylcyclopropyl) thieno[2,3-d]pyrimidin-4-amine], the figure is 440 nM.

`CCc1nc(NCCc2ccc(Cl)cc2)c2cc(C)sc2n1` [Example 7, N-(4-chlorophenethyl)-2-ethyl-6-methylthieno[2,3-d]pyrimidin-4-amine]: the half-maximal inhibitory concentration (IC50) was 1100 nM. As for `CCc1nc(NCCc2cccc(Cl)c2)c2cc(C)sc2n1` [Example 8, N-(3-chlorophenethyl)-2-ethyl-6-methylthieno[2,3-d]pyrimidin-4-amine], the figure is 690 nM; as for `CCc1nc(NCCc2ccccc2Cl)c2cc(C)sc2n1` [Example 9, N-(2-chlorophenethyl)-2-ethyl-6-methylthieno[2,3-d]pyrimidin-4-amine], 2000 nM. On to `CCc1nc(NCCc2ccc3ccccc3c2)c2cc(C)sc2n1` [Example 10, 2-ethyl-6-methyl-N-(2-(naphthalen-2-yl)ethyl)thieno[2,3-d]pyrimidin-4-amine], for which the IC50 was 450 nM.

Turning to `CCc1nc(NCCOc2ccccc2)c2cc(C)sc2n1` [Example 11, 2-ethyl-6-methyl-N-(2-phenoxyethyl)thieno [2,3-d]pyrimidin-4-amine], half-maximal inhibition (IC50) required 2800 nM. `CCc1nc(NCCc2ccncc2)c2cc(C)sc2n1` [Example 12, 2-ethyl-6-methyl-N-(2-(pyridin-4-yl)ethyl)thieno[2,3-d]pyrimidin-4-amine] registered an IC50 above 10000 nM. For `CCc1nc(NCCc2cccnc2)c2cc(C)sc2n1` [Example 13, 2-ethyl-6-methyl-N-(2-(pyridin-3-yl)ethyl)thieno[2,3-d]pyrimidin-4-amine], the IC50 was above 10000 nM. As for `CCc1nc(NCCc2ccccn2)c2cc(C)sc2n1` [Example 14, 2-ethyl-6-methyl-N-(2-(pyridin-2-yl)ethyl)thieno[2,3-d]pyrimidin-4-amine], the figure is above 10000 nM; as for `CCc1nc(NCCc2ccc(OC)cc2)c2cc(C)sc2n1` [Example 15, 2-ethyl-N-(4-methoxyphenethyl)-6-methylthieno[2,3-d]pyrimidin-4-amine], 2100 nM. Regarding `CCc1nc(NCCc2ccc([N+](=O)[O-])cc2)c2cc(C)sc2n1` [Example 16, 2-ethyl-6-methyl-N-(4-nitrophenethyl)thieno [2,3-d]pyrimidin-4-amine], the midpoint of inhibition, the IC50, lay at 9000 nM. As for `CCc1nc(N(C)CCCc2ccccc2)c2cc(C)sc2n1` [Example 17, 2-ethyl-N,6-dimethyl-N-(3-phenylpropyl)thieno [2,3-d]pyrimidin-4-amine], the figure is 7600 nM; as for `CCc1nc(NCCCc2ccc(OC)cc2)c2cc(C)sc2n1` [Example 18, 2-ethyl-N-(3-(4-methoxyphenyl)propyl)-6-methylthieno[2,3-d]pyrimidin-4-amine], 60 nM. As for `CCc1nc(NCCc2ccc(C(F)(F)F)cc2)c2cc(C)sc2n1` [Example 19, 2-ethyl-6-methyl-N-(4-(trifluoromethyl)phenethyl)thieno[2,3-d]pyrimidin-4-amine], the figure is 2900 nM.

Regarding `CCc1nc(NCCc2cccc(C(F)(F)F)c2)c2cc(C)sc2n1` [Example 20, 2-ethyl-6-methyl-N-(3-(trifluoromethyl)phenethyl)thieno[2,3-d]pyrimidin-4-amine], the IC50 amounted to 4900 nM. Consider `CCc1nc(NCCc2ccccc2C(F)(F)F)c2cc(C)sc2n1` [Example 21, 2-ethyl-6-methyl-N-(2-(trifluoromethyl)phenethyl)thieno[2,3-d]pyrimidin-4-amine], for which the IC50 is above 10000 nM.

For the compound `CCc1nc(NCCCc2ccc(OC)c(OC)c2)c2cc(C)sc2n1` [Example 22, N-(3-(3,4-dimethoxyphenyl)propyl)-2-ethyl-6-methylthieno[2,3-d]pyrimidin-4-amine], the IC50 is 770 nM. Turning to `CCc1nc(NC(C)CCc2ccccc2)c2cc(C)sc2n1` (stereo not drawn) [Example 23, 2-ethyl-6-methyl-N-(4-phenylbutan-2-yl)thieno[2,3-d]pyrimidin-4-amine], the IC50 came out at 8300 nM. As for `CCc1nc(NCCCc2ccco2)c2cc(C)sc2n1` [Example 24, 2-ethyl-N-(3-(furan-2-yl)propyl)-6-methylthieno[2,3-d]pyrimidin-4-amine], the figure is 1000 nM.

Regarding `CCc1nc(NCCCCc2ccccc2)c2cc(C)sc2n1` [Example 25, 2-ethyl-6-methyl-N-(4-phenylbutyl)thieno [2,3-d]pyrimidin-4-amine], the IC50 was determined as 120 nM.

Compound `CCc1nc(NCCc2ccc(-c3ccccc3)cc2)c2cc(C)sc2n1` [Example 26, N-(2-([1,1′-biphenyl]-4-yl)ethyl)-2-ethyl-6-methylthieno[2,3-d]pyrimidin-4-amine] gave an IC50 of 1200 nM. As for `CCc1nc(NCCCn2cccc2)c2cc(C)sc2n1` [Example 27, N-(3-(1H-pyrrol-1-yl)propyl)-2-ethyl-6-methylthieno[2,3-d]pyrimidin-4-amine], the figure is 210 nM; as for `Cc1cc2c(N[C@@H]3C[C@H]3c3ccc(F)c(F)c3)nc(C(F)(F)F)nc2s1` [Example 28, N-((1R,2S)-2-(3,4-difluorophenyl)cyclopropyl)-6-methyl-2-(trifluoromethyl) thieno [2,3-d]pyrimidin-4-amine], 2100 nM.

The compound `COc1ccc(CCCNc2nc(-c3ccccn3)nc3sccc23)cc1` [Example 29, N-(3-(4-methoxyphenyl)propyl)-2-(pyridin-2-yl)thieno[2,3-d]pyrimidin-4-amine] gave an IC50 of 2300 nM. As to `FC(F)(F)c1ccc(CCCNc2nc(-c3ccccn3)nc3sccc23)cc1` [Example 30, 2-(pyridin-2-yl)-N-(3-(4-(trifluoromethyl)phenyl)propyl)thieno[2,3-d]pyrimidin-4-amine], 2200 nM corresponded to half-maximal inhibition (IC50). As for `Fc1ccc([C@@H]2C[C@H]2Nc2nc(-c3ccccn3)nc3sccc23)cc1F` [Example 31, N-((1R,2S)-2-(3,4-difluorophenyl)cyclopropyl)-2-(pyridin-2-yl)thieno[2,3-d]pyrimidin-4-amine], the figure is 7100 nM; as for `Fc1ccc([C@@H]2C[C@H]2Nc2nc(-c3ccccn3)nc3sc(Cl)cc23)cc1F` [Example 32, 6-chloro-N-((1R,2S)-2-(3,4-difluorophenyl)cyclopropyl)-2-(pyridin-2-yl)thieno[2,3-d]pyrimidin-4-amine], 3500 nM; as for `Cc1cc2c(N[C@@H]3C[C@H]3c3ccc(F)c(F)c3)nc(-c3ccccn3)nc2s1` [Example 33, N-((1R,2S)-2-(3,4-difluorophenyl)cyclopropyl)-6-methyl-2-(pyridin-2-yl)thieno[2,3-d]pyrimidin-4-amine], 4300 nM.

With `CCc1nc(NCCCc2ccc(OC(F)(F)F)cc2)c2cc(C)sc2n1` [Example 34, 2-ethyl-6-methyl-N-(3-(4-(trifluoromethoxy)phenyl)propyl)thieno[2,3-d]pyrimidin-4-amine], the IC50 amounted to 270 nM. The compound `FC(F)(F)Oc1ccc(CCCNc2nc(-c3ccccn3)nc3sccc23)cc1` [Example 35, 2-(pyridin-2-yl)-N-(3-(4-(trifluoromethoxy)phenyl)propyl)thieno[2,3-d]pyrimidin-4-amine] came in with an IC50 of 2200 nM. As for `Cc1cc2c(NCCCc3ccc(OC(F)(F)F)cc3)nc(C(F)(F)F)nc2s1` [Example 36, 6-methyl-N-(3-(4-(trifluoromethoxy)phenyl)propyl)-2-(trifluoromethyl)thieno [2,3-d]pyrimidin-4-amine], the figure is 2100 nM. As to `CCc1nc(NCCc2cccc(OC)c2)c2cc(C)sc2n1` [Example 37, 2-ethyl-N-(3-methoxyphenethyl)-6-methylthieno[2,3-d]pyrimidin-4-amine], the IC50 is above 7900 nM. As for `Cc1cc2c(N[C@@H]3C[C@H]3c3ccc(F)c(F)c3)nc(-c3ccncn3)nc2s1` [Example 38, N-((1R,2S)-2-(3,4-difluorophenyl)cyclopropyl)-6-methyl-2-(pyrimidin-4-yl)thieno[2,3-d]pyrimidin-4-amine], the figure is 2000 nM; as for `CCc1nc(NCCc2cccc([N+](=O)[O-])c2)c2cc(C)sc2n1` [Example 39, 2-ethyl-6-methyl-N-(3-nitrophenethyl)thieno [2,3-d]pyrimidin-4-amine], above 8800 nM; as for `CCc1nc(NCCOc2ccc(OC)cc2)c2cc(C)sc2n1` [Example 40, 2-ethyl-N-(2-(4-methoxyphenoxy)ethyl)-6-methylthieno[2,3-d]pyrimidin-4-amine], 3600 nM.
